These are literature values, as cited in patent US20030157036A1, “Topical dapsone for the treatment of acne” (priority 2002, published 2003).

This series has as its system P. acnes.

With `Nc1ccc(S(=O)(=O)c2ccc(N)cc2)cc1` [Dapsone, bis(4-aminophenyl)sulfone], the minimum inhibitory concentration entry is on record as “about 1 microgram per milliliter”.
